Results on 25 molecules are retold here after US20230114241A1, “METHODS OF TREATING EPILEPSY USING THE SAME” (Trevena, Inc., priority 2019, published 2023).

Assay [1] has as its target T1, human sphingosine-1-phosphate receptor 1 (S1P1) (Homo sapiens, UniProt P21453). Description: β-Arrestin2 recruitment assay (PathHunter), S1P1 CHO-K1 cells. It counts as cell-based. The settings on record: for Emax: CHO-K1, efficacy normalized to maximum efficacy of fingolimod, read-out: hS1P1 B-arrestin2 SPAN; for EC50: β-arrestin2 recruitment, S1P1, read-out: hS1P1 B-arrestin2 pEC50 (converted). A digest of the protocol:
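Agonist-driven β-arrestin2 recruitment measured by β-galactosidase complementation after 60 min compound exposure at 37 °C and 1 h detection at room temperature. Cells: stable CHO-K1 line expressing tagged human S1P1 with EA-β-arrestin2, plated the night before. Data expressed relative to fingolimod.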
Background: Recruitment of arrestin is a read-out of receptor activation apart from second messengers.
Target sequence in this assay (P21453 whole entry): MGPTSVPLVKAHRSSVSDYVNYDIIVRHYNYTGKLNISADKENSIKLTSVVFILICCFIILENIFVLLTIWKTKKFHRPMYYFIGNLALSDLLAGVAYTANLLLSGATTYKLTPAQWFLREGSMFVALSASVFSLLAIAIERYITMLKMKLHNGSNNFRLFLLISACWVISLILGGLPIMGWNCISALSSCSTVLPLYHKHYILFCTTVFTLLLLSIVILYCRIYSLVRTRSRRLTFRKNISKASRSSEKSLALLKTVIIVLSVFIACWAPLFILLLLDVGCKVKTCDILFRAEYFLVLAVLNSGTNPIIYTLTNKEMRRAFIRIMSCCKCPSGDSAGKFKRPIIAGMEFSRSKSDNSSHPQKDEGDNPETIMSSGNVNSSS
Target sequence in this assay (P32121 whole entry partner): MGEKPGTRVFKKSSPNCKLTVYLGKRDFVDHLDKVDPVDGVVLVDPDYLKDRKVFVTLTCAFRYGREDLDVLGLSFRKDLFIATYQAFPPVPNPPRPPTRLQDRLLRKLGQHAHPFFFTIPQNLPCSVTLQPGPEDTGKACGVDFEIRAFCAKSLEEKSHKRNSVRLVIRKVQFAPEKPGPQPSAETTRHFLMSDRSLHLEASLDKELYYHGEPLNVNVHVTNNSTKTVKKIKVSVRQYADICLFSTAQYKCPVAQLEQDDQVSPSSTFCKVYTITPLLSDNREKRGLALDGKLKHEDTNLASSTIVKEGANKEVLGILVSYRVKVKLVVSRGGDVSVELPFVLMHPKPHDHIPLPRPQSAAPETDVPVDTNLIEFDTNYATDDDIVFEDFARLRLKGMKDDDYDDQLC

For assay [2], the target named is T1, human sphingosine-1-phosphate receptor 1 (S1P1). Description: Inhibition of cAMP production (HTRF cAMP HiRange), S1P1 CHO-K1 cells. It counts as cell-based. To be noted: for Emax: CHO-K1, efficacy normalized to maximum efficacy of fingolimod, read-out: hS1P1 CAMP SPAN; for EC50: inhibition of cAMP production, S1P1, read-out: hS1P1 CAMP pEC50 (converted). The method in brief:
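Intracellular cAMP changes read by TR-FRET (HTRF HiRange, 1 h room temperature) after 30 min compound exposure at 37 °C. Cells: overnight-plated CHO-K1 stably expressing tagged human S1P1 with EA-β-arrestin2. Responses normalized to fingolimod.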
Target sequence in this assay (P21453 whole entry): as the sequence (P21453 whole entry) above

A value given as a limit tells only on which side of the number the result lay.

Take `CC(C)Cn1nnc2cc(-c3nc4c(Cl)cccc4o3)ccc21` [Compound 453, 4-chloro-2-(1-isobutyl-1H-benzo[d][1,2,3]triazol-5-yl)benzo[d]oxazole]: the Emax in assay [1] was under 75%; in assay [2], over 75%. The EC50 in assay [2] is under 316 nM.
Taken in the same sequence, the figures for `CC(C)Cn1nnc2cc(-c3nc4cccc(Br)c4o3)ccc21` [Compound 454, 7-bromo-2-(1-isobutyl-1H-benzo[d][1,2,3]triazol-5-yl)benzo[d]oxazole] were over 75%, over 75% and under 316 nM.
As for `CC(C)n1nnc2cc(-c3nc(-c4sccc4Cl)co3)ccc21` [Compound 463, 5-[4-(3-chlorothiophen-2-yl)-1,3-oxazol-2-yl]-1-(propan-2-yl)-1H-1,2,3-benzotriazole], in assay [1], the Emax was over 75% and the EC50 is under 10000 nM. Further, in assay [2], the Emax is over 75% and the EC50 is under 316 nM.
`CCC1(CC)CC(=O)c2cc(-c3nc(-c4ccc[nH]4)no3)ccc2O1` [Compound 464, 6-(3-(1H-pyrrol-2-yl)-1,2,4-oxadiazol-5-yl)-2,2-diethylchroman-4-one]: in assay [1], the Emax was under 75% and the EC50 is over 10000 nM. Further, in assay [2], the Emax was under 75% and the EC50 was under 316 nM.
`CCC1(CC)CC(=O)c2cc(-c3nc(-c4ccco4)no3)ccc2O1` [Compound 465, 2,2-diethyl-6-(3-(furan-2-yl)-1,2,4-oxadiazol-5-yl)chroman-4-one]: in assay [1], the Emax is over 75% and the EC50 is under 10000 nM. Also, in assay [2], the Emax is over 75% and the EC50 was under 316 nM.
`CCC1(CC)CC(=O)c2cc(-c3nc(-c4cnc[nH]4)no3)ccc2O1` [Compound 466, 6-(3-(1H-imidazol-5-yl)-1,2,4-oxadiazol-5-yl)-2,2-diethylchroman-4-one]: in assay [1], the Emax was over 75% and the EC50 is over 10000 nM. Moreover, in assay [2], the Emax was over 75% and the EC50 is over 316 nM.
As for `CCC1(CC)CC(=O)c2cc(-c3nc(-c4cccs4)no3)ccc2O1` [Compound 467, 2,2-diethyl-6-(3-(thiophen-2-yl)-1,2,4-oxadiazol-5-yl)chroman-4-one], in assay [1], the Emax was over 75% and the EC50 is under 10000 nM. Besides, in assay [2], the Emax was over 75% and the EC50 was under 316 nM.
Consider `CCC1(CC)CC(=O)c2cc(-c3nc(-c4ccsc4)no3)ccc2O1` [Compound 468, 2,2-diethyl-6-(3-(thiophen-3-yl)-1,2,4-oxadiazol-5-yl)chroman-4-one], for which, in assay [1], the Emax was over 75% and the EC50 is under 10000 nM. In assay [2], the Emax is over 75% and the EC50 was under 316 nM.
Consider `CCC1(CC)CC(=O)c2cc(-c3nc(-c4ccn[nH]4)no3)ccc2O1` [Compound 470, 6-(3-(1H-pyrazol-5-yl)-1,2,4-oxadiazol-5-yl)-2,2-diethyl-chroman-4-one], for which the Emax in assay [1] and in assay [2] was over 75% each time. Besides, the EC50 is over 10000 nM in assay [1] and over 316 nM in assay [2].
As to `N#Cc1cc(-c2nc(-c3ccc4c(c3)NC(=O)CC4)no2)ccc1NCC1CC1` [Compound 471, 2-((cyclopropyl-methyl)amino)-5-(3-(2-oxo-1,2,3,4-tetrahydroquinolin-7-yl)-1,2,4-oxadiazol-5-yl)benzonitrile], in assay [1], the Emax was over 75% and the EC50 is under 10000 nM. For the same molecule, in assay [2], the Emax was over 75% and the EC50 is under 316 nM.
For the molecule `N#Cc1cc(-c2nc(-c3ccc4c(c3)CCC(=O)N4)no2)ccc1NCC(F)(F)F` [Compound 472, 5-[3-(2-oxo-1,2,3,4-tetrahydroquinolin-6-yl)-1,2,4-oxadiazol-5-yl]-2-[(2,2,2-trifluoro-ethyl)amino]benzonitrile], the Emax in assay [1] and in assay [2] was over 75% throughout. The EC50 in assay [1] is under 10000 nM; in assay [2] it was under 316 nM.
In the case of `CC(C)Nc1ccc(-c2nnc(-c3ccc4c(c3)CCC(=O)N4)o2)cc1C#N` [Compound 473, 5-[5-(2-oxo-1,2,3,4-tetrahydroquinolin-6-yl)-1,3,4-oxadiazol-2-yl]-2-[(propan-2-yl)amino]benzonitrile], in assay [1], the Emax is over 75% and the EC50 is under 10000 nM. Moreover, in assay [2], the Emax is over 75% and the EC50 was under 316 nM.
With `N#Cc1cc(-c2nnc(-c3ccc4c(c3)CCC(=O)N4)o2)ccc1NCC1CC1` [Compound 475, 2-[(cyclopropyl-methyl)amino]-5-[5-(2-oxo-1,2,3,4-tetrahydroquinolin-6-yl)-1,3,4-oxadiazol-2-yl]benzonitrile], in assay [1], the Emax is under 75% and the EC50 is under 10000 nM. In assay [2], the Emax was over 75% and the EC50 is under 316 nM.
Turning to `N#Cc1cc(-c2nnc(-c3ccc4c(c3)CCC(=O)N4)o2)ccc1NCCF` [Compound 476, 2-[(2-fluoroethyl)amino]-5-[5-(2-oxo-1,2,3,4-tetrahydroquinolin-6-yl)-1,3,4-oxadiazol-2-yl]benzonitrile], in assay [1], the Emax is under 75% and the EC50 was under 10000 nM. In addition, in assay [2], the Emax was over 75% and the EC50 is under 316 nM.
With `N#Cc1cc(-c2nnc(-c3ccc4c(c3)CCC(=O)N4)o2)ccc1NCC(F)F` [Compound 477, 2-[(2,2-difluoroethyl)amino]-5-[5-(2-oxo-1,2,3,4-tetrahydro-quinolin-6-yl)-1,3,4-oxadiazol-2-yl]benzonitrile], in assay [1], the Emax was under 75% and the EC50 is under 10000 nM. In addition, in assay [2], the Emax was over 75% and the EC50 is under 316 nM.
Taken in the same sequence, the figures for `O=C1CC(CO)(CO)Oc2ccc(-c3nc(-c4cccnc4)no3)cc21` [Compound 478, 2,2-bis(hydroxymethyl)-6-[3-(pyridin-3-yl)-1,2,4-oxadiazol-5-yl]-3,4-dihydro-2H-1-benzopyran-4-one] were under 75%, over 10000 nM, under 75% and over 316 nM.
Taken in the same sequence, the figures for `O=C1c2cc(-c3nc(-c4cccnc4)no3)ccc2OC(CO)(CO)C1Br` (centres unmarked) [Compound 479, 3-bromo-2,2-bis(hydroxy-methyl)-6-[3-(pyridin-3-yl)-1,2,4-oxadiazol-5-yl]-3,4-dihydro-2H-1-benzopyran-4-one] were under 75%, over 10000 nM, under 75% and over 316 nM.
Turning to `CC1(C)Oc2ccc(-c3nc(-c4ccncc4)no3)cc2C1=O` [Compound 480, 2,2-dimethyl-5-[3-(pyridin-4-yl)-1,2,4-oxadiazol-5-yl]-2,3-dihydro-1-benzofuran-3-one], in assay [1], the Emax is under 75% and the EC50 was over 10000 nM. Moreover, in assay [2], the Emax is over 75% and the EC50 was over 316 nM.
Taken in the same sequence, the figures for `CC1(C)Oc2ccc(-c3nc(-c4cccnc4)no3)cc2C1=O` [Compound 481, 2,2-dimethyl-5-[3-(pyridin-3-yl)-1,2,4-oxadiazol-5-yl]-2,3-dihydro-1-benzofuran-3-one] were under 75%, under 10000 nM, over 75% and over 316 nM.
Taken in the same sequence, the figures for `O=C1CC(CO)(CO)Oc2ccc(-c3nc(-c4ccncc4)no3)cc21` [Compound 482, 2,2-bis(hydroxymethyl)-6-[3-(pyridin-4-yl)-1,2,4-oxadiazol-5-yl]-3,4-dihydro-2H-1-benzopyran-4-one] were over 75%, over 10000 nM, under 75% and over 316 nM.
Taken in the same sequence, the figures for `O=C1c2cc(-c3nc(-c4ccncc4)no3)ccc2OC(CO)(CO)C1Br` (centres unmarked) [Compound 483, 3-bromo-2,2-bis(hydroxy-methyl)-6-[3-(pyridin-4-yl)-1,2,4-oxadiazol-5-yl]-3,4-dihydro-2H-1-benzopyran-4-one] were under 75%, over 10000 nM, over 75% and over 316 nM.
Take `CC(C)Nc1ccc(-c2nnc(-c3ccc4[nH]c(=O)oc4c3)o2)cc1C#N` [Compound 484, 5-[5-(2-oxo-2,3-dihydro-1,3-benzoxazol-6-yl)-1,3,4-oxadiazol-2-yl]-2-[(propan-2-yl)amino]benzonitrile]: in assay [1], the Emax was over 75% and the EC50 was under 10000 nM. For the same molecule, in assay [2], the Emax was over 75% and the EC50 was under 316 nM.
Turning to `CCC1(CC)CC(=O)c2cc(-c3nc(-c4cc[nH]c4)no3)ccc2O1` [Compound 485, 6-(3-(1H-pyrrol-3-yl)-1,2,4-oxadiazol-5-yl)-2,2-diethylchroman-4-one], in assay [1], the Emax was over 75% and the EC50 was over 10000 nM. In assay [2], the Emax is over 75% and the EC50 was under 316 nM.
On to `N#Cc1cc(-c2nnc(-c3ccc4[nH]c(=O)oc4c3)o2)ccc1NCC1CC1` [Compound 486, 2-[(cyclopropyl-methyl)amino]-5-[5-(2-oxo-2,3-dihydro-1,3-benzoxazol-6-yl)-1,3,4-oxadiazol-2-yl]benzonitrile], for which the values for the Emax in assay [1] and in assay [2] were over 75% and under 75%, respectively. In addition, the EC50 was over 10000 nM in assay [1] and under 316 nM in assay [2].
Taken in the same sequence, the figures for `N#Cc1cc(-c2nnc(-c3ccc4[nH]c(=O)oc4c3)o2)ccc1NCCF` [Compound 487, 2-[(2-fluoroethyl)amino]-5-[5-(2-oxo-2,3-dihydro-1,3-benzoxazol-6-yl)-1,3,4-oxadiazol-2-yl]benzonitrile] were over 75%, over 75%, under 10000 nM and over 316 nM.
